According to paper PMC6002953 (ACS chemical neuroscience, 2017):
Values joined by “and” are separate entries in the source; they are usually repeats but may differ in a detail not shown here. Equal entries are not always repeated.

Key:
human OX2 receptor = target: T1, human OX2 receptor (Homo sapiens, UniProt O43614); assay: Calcium mobilization Ke assay, OX2; format: cell-based
T1 sequence (O43614 1-444): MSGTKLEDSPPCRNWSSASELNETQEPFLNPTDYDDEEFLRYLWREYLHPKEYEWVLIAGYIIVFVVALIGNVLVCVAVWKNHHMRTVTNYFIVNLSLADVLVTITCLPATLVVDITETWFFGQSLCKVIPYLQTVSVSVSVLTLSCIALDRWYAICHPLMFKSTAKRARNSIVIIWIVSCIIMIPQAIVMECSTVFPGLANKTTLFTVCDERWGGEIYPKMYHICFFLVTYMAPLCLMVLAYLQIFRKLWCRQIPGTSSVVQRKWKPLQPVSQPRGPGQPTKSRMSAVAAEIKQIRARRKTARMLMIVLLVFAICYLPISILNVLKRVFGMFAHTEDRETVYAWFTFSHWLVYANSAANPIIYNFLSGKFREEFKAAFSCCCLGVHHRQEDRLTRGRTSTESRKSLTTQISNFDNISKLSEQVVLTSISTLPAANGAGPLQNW

P-glycoprotein (MDR1) = assay: BBB permeability, bidirectional transport through MDCK-MDR1 monolayers; conditions: dog, MDCK-MDR1, pH 7.4
[1] = Kinetic solubility in PBS pH 7.4; format: physicochemical; conditions: pH 7.4, aqueous buffer, kinetic from dmso stock
human OX1 receptor = target: T2, human OX1 receptor (Homo sapiens, UniProt O43613); assay: Calcium mobilization Ke assay, OX1; format: cell-based
T2 sequence (O43613 1-425): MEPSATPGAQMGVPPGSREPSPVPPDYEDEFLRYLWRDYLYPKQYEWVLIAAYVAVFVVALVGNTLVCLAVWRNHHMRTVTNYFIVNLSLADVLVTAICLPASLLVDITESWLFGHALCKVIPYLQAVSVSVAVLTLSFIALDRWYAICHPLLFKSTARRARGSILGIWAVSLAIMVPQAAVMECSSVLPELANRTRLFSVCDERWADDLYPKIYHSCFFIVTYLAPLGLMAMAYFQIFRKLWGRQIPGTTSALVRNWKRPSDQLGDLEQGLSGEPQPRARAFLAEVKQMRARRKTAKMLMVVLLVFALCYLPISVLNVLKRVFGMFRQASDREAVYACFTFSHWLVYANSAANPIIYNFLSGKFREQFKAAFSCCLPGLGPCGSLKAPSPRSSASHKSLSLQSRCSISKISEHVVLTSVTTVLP

MDCK-MDR1 monolayers = assay: BBB permeability, bidirectional transport through MDCK-MDR1 monolayers; conditions: 10 μM test article, single determination

Row | SMILES | Kd (human OX2 receptor) | Papp A→B at 90 min, 10 μM (P-glycoprotein (MDR1)) | Papp B→A at 90 min, 10 μM (P-glycoprotein (MDR1)) | efflux ratio at 90 min, 10 μM (P-glycoprotein (MDR1)) | solubility kinetic at 2 h [1] | Kd (human OX1 receptor) | selectivity over OX2 (human OX1 receptor; OX1 over OX2, calcium mobilization assays) | OX2/OX1 (human OX1 receptor; ratio of Ke values OX2/OX1) | Papp A-to-B (MDCK-MDR1 monolayers; MDCK-MDR1, apical-to-basolateral) | Papp B-to-A (MDCK-MDR1 monolayers; MDCK-MDR1, basolateral-to-apical)
1 | COc1ccc(CC2c3cc(N(C)C)c(OC)cc3CCN2CC(=O)NCc2cccnc2)cc1N(C)C (stereo not shown) [Compound 44, 2-[7-(Dimethylamino)-1-{[3-(dimethylamino)-4-methoxyphenyl]methyl}-6-methoxy-1,2,3,4-tetrahydroisoquinolin-2-yl]-N-(pyridin-3-ylmethyl)acetamide] | > 10000 nM | 14.7 ×10⁻⁶ cm/s | 47.8 ×10⁻⁶ cm/s | 3.3 | > 200 µM | 5.7 ± 1 nM | > 1,760 fold and > 1,000 fold | >1,760 | – | –
2 | COc1ccc(CC2c3cc(OCC(F)(F)F)c(OC)cc3CCN2CC(=O)NCc2cccnc2)cc1OC (stereo not shown) [Compound 5, reference compound] | – | – | – | – | – | – | – | – | 12.2 10^−6 cm/sec | 36.2 10^−6 cm/sec
